Results taken from patent publication US20240300886A1, “ARYLCYCLOHEXYLAMINE DERIVATIVES AND THEIR USE IN THE TREATMENT OF PSYCHIATRIC DISORDERS” (GILGAMESH PHARMACEUTICALS, INC., priority 2021, published 2024).

Assays:
[1] = tested on: immobility time in the FST; assay: Forced swim test (FST) in rats; format: in vivo, Sprague-Dawley rats; details: s.c., 23.5-h pre-treatment time
Description: Disclosed compounds were tested in the forced swim test (FST) in rats with a 23.5-h pre-treatment time according to the following procedures.
Animals. Male Sprague-Dawley rats, aged 8-10 weeks, were used in the experiments. Animals were housed in groups of 2 under controlled temperature (22±3° C.) and relative humidity (30-70%) conditions, with 12-hour light/dark cycles, and with ad libitum food and water. All efforts were made to minimize suffering.
Drugs and Drug Administration. Test compounds, saline vehicle, and the positive control desipramine were administered subcutaneously (s.c.), with doses calculated based on the freebase. Normal saline was used as the vehicle for compounds provided as the HCl salt, while saline acidified with 1-2 molar equivalents of HCl was used as the vehicle for compounds provided as the freebase (to form the soluble HCl salt in situ). All compounds were administered at a volume of 5 mL/kg. Test compounds and vehicle were administered 0.5 h after the start of the training swim (Swim 1) and 23.5 h before the test swim (Swim 2). […]
Behavioral scoring was conducted by observers who were blind to the treatment groups. Animals were continuously observed during Swim 2 and the total time spent engaging in the following behaviors was recorded: immobile, swimming, and climbing. […]

[2] = Metabolic stability in dog liver microsomes (DLM); format: in vitro ADME, beagle dogs; details: for half-life at 1 μM / microsomal CLint at 1 μM: male, beagle, dog, pooled dog liver microsomes, pH 7.4, 1 μM compound, 0.50 mg protein/mL, NADPH
Description: DLM Stability. Pooled DLM from male beagle dogs (XenoTech D1000) were used. Microsomal incubations were carried out in multi-well plates. Liver microsomal incubation medium consisted of PBS (100 mM, pH 7.4), MgCl2 (1 mM), and NADPH (1 mM), with 0.50 mg of liver microsomal protein per mL. Control incubations were performed by replacing the NADPH-cofactor system with PBS. Test compounds (1 μM, final solvent concentration 1.0%) were incubated with microsomes at 37° C. with constant shaking. Six time points over 60 minutes were analyzed, with 60 μL aliquots of the reaction mixture being drawn at each time point. The reaction aliquots were stopped by adding 180 μL of cold (4° C.) acetonitrile containing 200 ng/mL tolbutamide and 200 ng/mL labetalol as internal standards ([…]), followed by shaking for 10 minutes, and then protein sedimentation by centrifugation at 4,000 rpm for 20 minutes at 4° C. Supernatant samples (80 μL) were diluted with water (240 μL) and analyzed for parent compound remaining using a fit-for-purpose liquid chromatography-tandem mass spectrometry (LC-MS/MS) method.
Data Analysis. The elimination constant (kel), half-life (t1/2) and intrinsic clearance (Clint) were determined in a plot of […] versus time, using linear regression analysis.

[3] = biological target: serotonin transporter (SERT) (Homo sapiens (Human), UniProt P31645); assay: SERT competition radioligand binding ([3H]imipramine); details: for Ki: Human recombinant (CHO cells), 2.0 nM [3H]imipramine
Description: Disclosed compounds were tested for their binding affinity at the serotonin transporter (SERT) using a competition radioligand binding assay (Eurofins Cerep). Assay conditions are described in Table 16 below.

[4] = Stability in liver microsomes (Example 21), cynomolgus monkey; format: in vitro ADME; details: male, pH 7.4, 0.5 mg/mL protein
Description: (§1) General Procedure. Briefly, test compounds (final concentration 1 μM) were incubated in duplicate with liver microsomes from male animals of the indicated species (final protein concentration 0.5 mg/mL) in 50 mM sodium phosphate buffer (pH 7.4) with or without NADPH (1 mM). Total incubation volume was 500 μL. At 0, 5, 15, 30, and 60 min, aliquots of 50 μL were withdrawn, quenched with acetonitrile (150 μL), and analyzed for parent compound remaining using a fit-for-purpose LC-MS/MS method. Intrinsic clearance and half-life were calculated. Clearance values below zero were rounded to zero.

[5] = biological target: recombinant human NMDA receptor (GRIN1/GRIN2B) (Homo sapiens (Human), UniProt Q05586+Q13224); assay: Unblocking kinetics at the NMDA receptor in Xenopus laevis oocytes (two-electrode voltage clamp); format: cell-based; details: for Unblocking T1/2 ± SEM: compounds applied at 3×IC50, -70 mV, n ≥ 5
recombinant human NMDA receptor (GRIN1/GRIN2B), sequence (Q13224 whole entry, looked up, other chains not shown): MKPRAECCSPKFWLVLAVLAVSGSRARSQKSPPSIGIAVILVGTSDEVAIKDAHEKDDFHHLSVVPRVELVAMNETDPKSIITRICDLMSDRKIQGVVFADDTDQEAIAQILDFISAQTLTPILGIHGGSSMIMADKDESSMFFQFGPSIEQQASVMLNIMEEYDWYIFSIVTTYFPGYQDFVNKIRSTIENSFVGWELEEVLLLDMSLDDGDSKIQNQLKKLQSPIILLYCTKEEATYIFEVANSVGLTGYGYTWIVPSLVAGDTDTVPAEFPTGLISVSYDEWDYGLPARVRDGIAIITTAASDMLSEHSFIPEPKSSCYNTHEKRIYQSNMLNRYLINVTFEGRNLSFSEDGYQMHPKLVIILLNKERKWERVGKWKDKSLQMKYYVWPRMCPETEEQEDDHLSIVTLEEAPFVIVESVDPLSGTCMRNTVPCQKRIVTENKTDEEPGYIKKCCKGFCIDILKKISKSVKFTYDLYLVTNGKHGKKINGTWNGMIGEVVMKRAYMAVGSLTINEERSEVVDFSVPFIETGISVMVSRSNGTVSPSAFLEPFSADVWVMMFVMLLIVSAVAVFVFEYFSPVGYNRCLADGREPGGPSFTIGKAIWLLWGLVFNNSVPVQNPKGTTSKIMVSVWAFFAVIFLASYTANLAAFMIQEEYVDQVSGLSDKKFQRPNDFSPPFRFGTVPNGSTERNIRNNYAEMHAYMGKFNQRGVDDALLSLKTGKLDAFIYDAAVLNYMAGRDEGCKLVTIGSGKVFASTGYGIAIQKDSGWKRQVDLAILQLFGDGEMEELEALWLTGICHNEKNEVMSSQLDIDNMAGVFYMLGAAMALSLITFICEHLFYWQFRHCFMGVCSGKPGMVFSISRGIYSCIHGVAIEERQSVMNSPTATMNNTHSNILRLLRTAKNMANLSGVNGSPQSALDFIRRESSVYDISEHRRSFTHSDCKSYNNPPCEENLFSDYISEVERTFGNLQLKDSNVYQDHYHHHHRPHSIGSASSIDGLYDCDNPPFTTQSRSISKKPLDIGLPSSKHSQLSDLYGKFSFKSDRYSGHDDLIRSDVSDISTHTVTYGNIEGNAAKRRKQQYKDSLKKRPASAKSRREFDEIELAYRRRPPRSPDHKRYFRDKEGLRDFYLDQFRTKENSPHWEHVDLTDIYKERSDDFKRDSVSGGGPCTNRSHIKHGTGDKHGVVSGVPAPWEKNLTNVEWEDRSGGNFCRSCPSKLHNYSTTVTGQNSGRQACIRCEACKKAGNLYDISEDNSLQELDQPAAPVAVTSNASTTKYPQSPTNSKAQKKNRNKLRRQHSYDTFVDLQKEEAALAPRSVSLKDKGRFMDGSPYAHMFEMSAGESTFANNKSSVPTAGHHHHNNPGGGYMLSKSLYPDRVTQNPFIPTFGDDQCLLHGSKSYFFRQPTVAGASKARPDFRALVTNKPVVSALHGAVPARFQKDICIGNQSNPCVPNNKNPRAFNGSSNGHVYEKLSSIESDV
Description: Compounds 2R, 2S, and 2-(2-fluorophenyl)-2-(methylamino)cyclohexan-1-one 2-F-DCK were tested for unblocking kinetics at the NMDA receptor in Xenopus laevis oocytes expressing recombinant human NMDA receptor (GRIN1/GRIN2B) (Table 22).
Experimental Procedure. Oocytes were harvested from adult Xenopus laevis and incubated in 96 well plates for two to four days prior to recordings. Plasmids containing cDNA encoding for human NMDA receptor subunits GRIN1 and GRIN2B were transcribed using the mMessage mMachine T7 transcription kit (Ambion, USA). The Roboocyte automated injection system was used for injection of cRNA coding for hNMDA receptor subunits at a concentration of 100 ng/μL per subunit. Oocytes were clamped to a holding potential of −70 mV and induced currents after compound application were sampled at 200 Hz at room temperature. Agonist induced currents were recorded with a two-electrode voltage clamp. To determine the unblocking kinetics, glutamate and glycine (3 and 10 μM, respectively) were applied to the oocytes and the current recorded for 90 s. Then, compounds were applied at 3×IC50 for 120 s and the currents recorded.

[6] = Stability in liver microsomes (Example 21), beagle dog; format: in vitro ADME; details: male, pH 7.4, 0.5 mg/mL protein
Description: as §1

SMILES	immobility time in the FST relative to vehicle [1]	half-life at 1 μM [2]	microsomal CLint at 1 μM [2]	Ki [3]	microsomal CLint at 1 μM [4]	half-life for unblocking compared to 2-F-DCK (in words) [5]	Unblocking T1/2 ± SEM [5]	microsomal CLint at 1 μM [6]	SERT binding potency relative to 2S (more potent) ([3]; human recombinant SERT)	stability in DLM (in words) [2]
N[C@]1(c2ccc(F)cc2)CCCCC1=O [Compound 1S, (S)-2-amino-2-(4-fluorophenyl)cyclohexan-1-one]	reduced immobility time	> 145 min	< 9.6 µL/min/mg	–	–	–	–	–	–	–
CNC1(c2ccccc2Cl)CCCCC1=O (racemic) [racemic ketamine, ketamine]	–	2.4 min	589 µL/min/mg	–	–	–	–	–	–	–
CN[C@]1(c2ccc(F)cc2)CCCCC1=O [Compound 2S, (S)-2-(4-fluorophenyl)-2-(methylamino)cyclohexan-1-one]	–	18.2 min	76 µL/min/mg	12 µM	15.3 µL/min/mg	much shorter half-life for unblocking	0.45 ± 0.102 min	7.3 µL/min/mg	–	–
N[C@]1(c2cccc(F)c2)CCCCC1=O [Compound 3S]	–	51.7 min	26.8 µL/min/mg	–	–	–	–	–	–	–
CN[C@@]1(c2ccc(F)cc2)CCCCC1=O [Compound 2R, (R)-2-(4-fluorophenyl)-2(methylamino)cyclohexan-1-one]	reduced immobility time	38.7 min	35.8 µL/min/mg	6.2 µM	9.5 µL/min/mg	much shorter half-life for unblocking	0.378 ± 0.0383 min	10.5 µL/min/mg	~2 fold	substantially more stable
